Key:
barnyardgrass [1] = test: Test C preemergence; assay type: in vivo, Echinochloa crusgalli; conditions: 0 to 100 scale (0 no effect, 100 complete control)
In short: (§1)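 Visual injury score, 0–100 (100 = complete control), taken 10 days after treatment relative to untreated controls. Pre: directed spray onto soil over sown seeds. Post: foliar spray at one- to two-leaf stage, 2–10 cm. Solvent/surfactant formulation; loam–sand soil; greenhouse.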

blackgrass [2] = test: Test C preemergence; assay type: in vivo, Alopecurus myosuroides; conditions: 0 to 100 scale (0 no effect, 100 complete control)
In short: as §1

corn [3] = test: Test C preemergence; assay type: in vivo, Zea mays; conditions: 0 to 100 scale (0 no effect, 100 complete control)
In short: as §1

green foxtail [4] = test: Test C preemergence; assay type: in vivo, Setaria viridis; conditions: 0 to 100 scale (0 no effect, 100 complete control)
In short: as §1

kochia [5] = test: Test C preemergence; assay type: in vivo, Bassia scoparia; conditions: 0 to 100 scale (0 no effect, 100 complete control)
In short: as §1

oat, wild [6] = test: Test C preemergence; assay type: in vivo, Avena fatua; conditions: 0 to 100 scale (0 no effect, 100 complete control)
In short: as §1

pigweed, palmer [7] = test: Test C preemergence; assay type: in vivo, Amaranthus palmeri; conditions: 0 to 100 scale (0 no effect, 100 complete control)
In short: as §1

ragweed [8] = test: Test C preemergence; assay type: in vivo, Ambrosia artemisiifolia; conditions: 0 to 100 scale (0 no effect, 100 complete control)
In short: as §1

ryegrass, Italian [9] = test: Test C preemergence; assay type: in vivo, Lolium multiflorum; conditions: 0 to 100 scale (0 no effect, 100 complete control)
In short: as §1

soybean [10] = test: Test C preemergence; assay type: in vivo, Glycine max; conditions: 0 to 100 scale (0 no effect, 100 complete control)
In short: as §1

wheat [11] = test: Test C preemergence; assay type: in vivo, Triticum aestivum; conditions: 0 to 100 scale (0 no effect, 100 complete control)
In short: as §1

barnyardgrass [12] = test: Test C postemergence; assay type: in vivo, Echinochloa crusgalli; conditions: 10 days
In short: as §1

blackgrass [13] = test: Test C postemergence; assay type: in vivo, Alopecurus myosuroides; conditions: 10 days
In short: as §1

corn [14] = test: Test C postemergence; assay type: in vivo, Zea mays; conditions: 10 days
In short: as §1

green foxtail [15] = test: Test C postemergence; assay type: in vivo, Setaria viridis; conditions: 10 days
In short: as §1

kochia [16] = test: Test C postemergence; assay type: in vivo, Bassia scoparia; conditions: 10 days
In short: as §1

oat, wild [17] = test: Test C postemergence; assay type: in vivo, Avena fatua; conditions: 10 days
In short: as §1

pigweed, palmer [18] = test: Test C postemergence; assay type: in vivo, Amaranthus palmeri; conditions: 10 days
In short: as §1

ragweed [19] = test: Test C postemergence; assay type: in vivo, Ambrosia artemisiifolia; conditions: 10 days
In short: as §1

ryegrass, Italian [20] = test: Test C postemergence; assay type: in vivo, Lolium multiflorum; conditions: 10 days
In short: as §1

soybean [21] = test: Test C postemergence; assay type: in vivo, Glycine max; conditions: 10 days
In short: as §1

wheat [22] = test: Test C postemergence; assay type: in vivo, Triticum aestivum; conditions: 10 days
In short: as §1

galium = test: Test C postemergence; assay type: in vivo, Galium aparine; conditions: 10 days
In short: as §1

horseweed = test: Test C postemergence; assay type: in vivo, Erigeron canadensis; conditions: 10 days
In short: as §1

barnyardgrass [23] = test: Test D flooded paddy test; assay type: in vivo, Echinochloa crus-galli; conditions: 250 g ai/ha, applied to paddy water, visual rating after 13 to 14 days, scale 0 to 100 (0 no effect, 100 complete control)
In short: (§2)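 Plants grown to the 2-leaf stage; pots flooded to 3 cm above soil at treatment and held at that depth throughout. Test compounds applied directly to the paddy water. After 13 to 14 days in a greenhouse, response was rated visually versus controls on a 0 (no effect) to 100 (complete control) scale.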

ducksalad = test: Test D flooded paddy test; assay type: in vivo, Heteranthera limosa; conditions: 250 g ai/ha, applied to paddy water, visual rating after 13 to 14 days, scale 0 to 100 (0 no effect, 100 complete control)
In short: as §2

rice = test: Test D flooded paddy test; assay type: in vivo, Oryza sativa; conditions: 250 g ai/ha, applied to paddy water, visual rating after 13 to 14 days, scale 0 to 100 (0 no effect, 100 complete control)
In short: as §2

sedge, umbrella = test: Test D flooded paddy test; assay type: in vivo, Cyperus difformis; conditions: 250 g ai/ha, applied to paddy water, visual rating after 13 to 14 days, scale 0 to 100 (0 no effect, 100 complete control)
In short: as §2

[24] = Preemergence, 500 g ai/ha, visual rating after 10 days
[25] = Test C, preemergence, 125 g ai/ha
[26] = 125 g ai/ha, postemergence, 0 to 100 scale, 0 no effect, 100 complete control
[27] = Postemergence, 500 g ai/ha, visual 0 to 100 scale (0 no effect, 100 complete control)

C[C@H]1CN(C(=O)c2cc(-n3cncn3)cc3c2OCCO3)c2cccc(Cl)c2O1 [Compound 153]
Barnyardgrass plant response rating (barnyardgrass [1]; 125 g ai/ha, preemergence): 80 | Plant response rating, Barnyardgrass (barnyardgrass [1]; [24]): 100 | Plant response rating, Blackgrass (blackgrass [2]; [24]): 60 | Blackgrass plant response rating (blackgrass [2]; [25]): 20 | Plant response rating, Corn (corn [3]; [24]): 30 | Corn plant response rating (corn [3]; [25]): 10 | Plant response rating, Foxtail, Green (green foxtail [4]; [24]): 100 | Foxtail, Green plant response rating (green foxtail [4]; [25]): 100 | Plant response rating, Kochia (kochia [5]; [24]): 60 | Kochia plant response rating (kochia [5]; [25]): 0 | Plant response rating, Oat, Wild (oat, wild [6]; [24]): 80 | Oat, Wild plant response rating (oat, wild [6]; [25]): 40 | Plant response rating, Pigweed, Palmer (pigweed, palmer [7]; [24]): 100 | Pigweed, Palmer plant response rating (pigweed, palmer [7]; [25]): 100 | Plant response rating, Ragweed (ragweed [8]; [24]): 100 | Ragweed plant response rating (ragweed [8]; [25]): 80 | Plant response rating, Ryegrass, Italian (ryegrass, Italian [9]; [24]): 90 | Ryegrass, Italian plant response rating (ryegrass, Italian [9]; [25]): 90 | Plant response rating, Soybean (soybean [10]; [24]): 100 | Soybean plant response rating (soybean [10]; [25]): 100 | Plant response rating, Wheat (wheat [11]; [24]): 90 | Wheat plant response rating (wheat [11]; [25]): 20 | Plant response rating, Barnyardgrass (barnyardgrass [12]; [26]): 90 | Plant response rating, Barnyardgrass (barnyardgrass [12]; [27]): 90 | Plant response rating, Blackgrass (blackgrass [13]; [26]): 90 | Plant response rating, Blackgrass (blackgrass [13]; [27]): 90 | Plant response rating, Corn (corn [14]; [26]): 80 | Plant response rating, Corn (corn [14]; [27]): 90 | Plant response rating, Foxtail, Green (green foxtail [15]; [26]): 90 | Plant response rating, Foxtail, Green (green foxtail [15]; [27]): 90 | Plant response rating, Kochia (kochia [16]; [26]): 60 | Plant response rating, Kochia (kochia [16]; [27]): 90 | Plant response rating, Oat, Wild (oat, wild [17]; [26]): 50 | Plant response rating, Oat, Wild (oat, wild [17]; [27]): 70 | Plant response rating, Pigweed, Palmer (pigweed, palmer [18]; [26]): 70 | Plant response rating, Pigweed, Palmer (pigweed, palmer [18]; [27]): 100 | Plant response rating, Ragweed (ragweed [19]; [26]): 80 | Plant response rating, Ragweed (ragweed [19]; [27]): 100 | Plant response rating, Ryegrass, Italian (ryegrass, Italian [20]; [26]): 90 | Plant response rating, Ryegrass, Italian (ryegrass, Italian [20]; [27]): 100 | Plant response rating, Soybean (soybean [21]; [26]): 100 | Plant response rating, Soybean (soybean [21]; [27]): 100 | Plant response rating, Wheat (wheat [22]; [26]): 90 | Plant response rating, Wheat (wheat [22]; [27]): 90 | Plant response rating, Galium (galium; [26]): 90 | Plant response rating, Galium (galium; [27]): 100 | Plant response rating, Horseweed (horseweed; [26]): 60 | Plant response rating, Horseweed (horseweed; [27]): 50 | Plant response rating, Barnyardgrass (Flood) (barnyardgrass [23]): 35 | Plant response rating, Ducksalad (Flood) (ducksalad): 70 | Plant response rating, Rice (Flood) (rice): 15 | Plant response rating, Sedge, Umbrella (Flood) (sedge, umbrella): 98

— US20260262643A1, “HERBICIDAL BENZOXAZINES” (FMC CORPORATION, priority 2022, published 2026)
